Legend:
[1] = biological target: T1, MKNK1 (Homo sapiens, UniProt Q9BUB5, T385D); experiment: MKNK1 kinase assay (MKNK1 TR-FRET assay); type: biochemical; conditions: Table 1b; 10 μM ATP, 15 min preincubation
T1 construct: GST (N); purchased Carna Biosciences 02-145; host or cells: insect cells (baculovirus expression system)

[2] = biological target: T1, MKNK1; experiment: MKNK1 kinase high ATP assay (TR-FRET-based); type: biochemical; conditions: Table 2b; 2 mM ATP, 15 min preincubation
In short: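 TR-FRET read-out (anti-phospho-S6 Ser236 antibody, Eu/XL665) of biotin-peptide phosphorylation (0.06 μM) at high ATP (2 mM final). Enzyme was GST-MKNK1 full length, T344D, pre-bound to compound for 15 min before a 30 min reaction at 22 °C, pH 7.5. Inhibition scaled between no-inhibitor (0%) and no-enzyme (100%) wells.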

T1 sequence (Q9BUB5 1-424 isoform Q9BUB5-2 T344D): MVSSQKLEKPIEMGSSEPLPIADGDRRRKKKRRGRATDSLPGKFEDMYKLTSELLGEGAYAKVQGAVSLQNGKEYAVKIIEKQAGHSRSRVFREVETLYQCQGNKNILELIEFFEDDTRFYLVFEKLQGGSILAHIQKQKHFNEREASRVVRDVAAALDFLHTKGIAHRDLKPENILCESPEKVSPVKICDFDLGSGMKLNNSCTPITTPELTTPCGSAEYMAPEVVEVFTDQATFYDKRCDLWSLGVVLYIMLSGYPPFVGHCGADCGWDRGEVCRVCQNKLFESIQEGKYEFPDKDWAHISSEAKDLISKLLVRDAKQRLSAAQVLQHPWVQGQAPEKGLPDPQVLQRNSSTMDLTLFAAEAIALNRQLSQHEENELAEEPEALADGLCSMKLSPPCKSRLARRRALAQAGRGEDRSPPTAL

Structure (SMILES) | IC50 [1] [nM] | IC50 [2] [nM]
C[C@@H]1CNCCN1c1cccc2oc(-c3cnc4ccc(OCCCS(C)(=O)=O)nn34)cc12 [II-45, 3-{4-[(2R)-2-methylpiperazin-1-yl]-1-benzofuran-2-yl}-6-[3-(methylsulfonyl)pro-poxy]imidazo[1,2-b]pyri-dazine] | 5.7 | 5.9
C[C@@H]1COCCN1c1cccc2oc(-c3cnc4ccc(OC[C@H]5CCC(=O)N5)nn34)cc12 [II-49, (5R)-5-{[(3-{4-[(3R)-3-methylmorpholin-4-yl]-1-benzofuran-2-yl}imidazo[1,2-b]pyridazin-6-yl)oxy]methyl}pyrrolidin-2-one] | 5.2 | 11.9
C[C@@H]1COCCN1c1cccc2oc(-c3cnc4ccc(O[C@H]5C[C@H](N)C5)nn34)cc12 [II-50, trans-3-[(3-{4-[(3R)-3-methylmorpholin-4-yl]-1-benzofuran-2-yl}imidazo[1,2-b]pyridazin-6-yl)oxy]cyclobutanamine] | 39.1 | 50.6
C[C@H]1CN(c2cccc3oc(-c4cnc5ccc(OC[C@H]6CCC(=O)N6)nn45)cc23)CCN1 [II-53, (5R)-5-{[(3-{4-[(3S)-3-methylpiperazin-1-yl]-1-benzofuran-2-yl}imidazo[1,2-b]pyridazin-6-yl)oxy]methyl}pyrrolidin-2-one] | 1.1 | 1.1
C[C@H](N)COc1ccc2ncc(-c3cc4c(N5CCOC[C@H]5C)cccc4o3)n2n1 [II-57, (2S)-1-[(3-{4-[(3R)-3-methylmorpholin-4-yl]-1-benzofuran-2-yl}imidazo[1,2-b]pyridazin-6-yl)oxy]propan-2-amine] | 53.7 | 75.1

Further compounds by falling IC50 [1], results first:

IC50 [1] [nM] | IC50 [2] [nM] | Structure (SMILES)
7 | 3.9 | COC[C@H]1CCCN1c1cccc2oc(-c3cnc4ccc(OC[C@H]5CNCC(=O)N5)nn34)cc12 [II-48, (6R)-6-{[(3-{4-[(2R)-2-(methoxymethyl)pyrrolidin-1-yl]-1-benzofuran-2-yl}imidazo[1,2-b]pyridazin-6-yl)oxy]methyl}piperazin-2-one]
5.4 | 3.1 | FC(F)(F)COc1ccc2ncc(-c3cc4c(N5CCNCC5)cccc4o3)n2n1 [II-56, 3-[4-(piperazin-1-yl)-1-benzofuran-2-yl]-6-(2,2,2-trifluoroethoxy)im-idazo[1,2-b]pyridazine]
4.8 | 0.8 | COC[C@H]1CCCN1c1cccc2oc(-c3cnc4ccc(OC[C@@H]5CNCC(=O)N5)nn34)cc12 [II-47, (6S)-6-{[(3-{4-[(2R)-2-(methoxymethyl)pyrrolidin-1-yl]-1-benzofuran-2-yl}imidazo[1,2-b]pyridazin-6-yl)oxy]methyl}piperazin-2-one]
3.5 | 1.4 | CC1(C)CN(c2cccc3oc(-c4cnc5ccc(OCCCS(C)(=O)=O)nn45)cc23)CCN1 [II-55, 3-[4-(3,3-dimethylpiperazin-1-yl)-1-benzofuran-2-yl]-6-[3-(methylsulfonyl)propoxy]im-idazo[l,2-b]pyridazine]
2.8 | 50.8 | C[C@@H]1COCCN1c1cccc2oc(-c3cnc4ccc(OC[C@@H]5CCC(=O)N5)nn34)cc12 [II-51, (5S)-5-{[(3-{4-[(3R)-3-methylmorpholin-4-yl]-1-benzofuran-2-yl}imidazo[1,2-b]pyridazin-6-yl)oxy]methyl}pyrrolidin-2-one]
2.3 | 2.4 | CC1(C)CN(c2cccc3oc(-c4cnc5ccc(OCC(F)(F)F)nn45)cc23)CCN1 [II-54, 3-[4-(3,3-dimethylpiperazin-1-yl)-1-benzofuran-2-yl]-6-(2,2,2-trifluoroethoxy)im-idazo[1,2-b]pyridazine]
1.4 | 0.2 | CC1(C)CN(c2cccc3oc(-c4cnc5ccc(OC[C@H]6CCC(=O)N6)nn45)cc23)CCN1 [II-46, (5R)-5-[({3-[4-(3,3-dimethylpiperazin-1-yl)-1-benzofuran-2-yl]imidazo[1,2-b]pyridazin-6-yl}oxy)methyl]pyrrolidin-2-one]

Source: patent publication US20160287589A1, “SUBSTITUTED-IMIDAZOPYRIDAZINES” (BAYER PHARMA AKTIENGESELLSCHAFT, priority 2013, published 2016)
